The conditions of series [1]: result in words, compared with LL 1656; cited from earlier work.
The test system of series [2] is chien mâle anesthésié au nembutal. Put plainly: Peripheral vasodilator properties, intravenous administration in the anaesthetised dog. The series is classed as in vivo. As for the experimental part: (§1) Les propriétés vasodilatatrices périphériques ont été étudiées chez le chien mâle anesthésié au nembutal (6 animaux par dose et par produit). Les produits à comparer sont administrés en solution dans du sérum physiologique sous un volume de 6 ml/animal par voie intraveineuse (perfusion de 1 ml/min) et sous un volume de 10 ml/animal par voie intraduodénale. Par rapport aux témoins (les mêmes animaux ne recevant que le sérum physiologique), on mesure trois paramètres : la pression artérielle moyenne (exprimée en mm Hg; mm Hg correspond à 1,333224 x 10^2 Pa), la fréquence cardiaque (exprimée en battements/minute) et le débit artériel fémoral (exprimé en ml/min). Les variations de ces paramètres exprimées en pourcentages, par rapport aux témoins, sont données dans les tableaux II (administration intraveineuse) et III (administration intraduodénale) ci-après.
(§2) La vasodilatation périphérique se traduit dans ces circonstances par une augmentation du débit artériel fémoral. On dit, selon les présentes conditions opératoires, qu'un produit est un agent vasodilatateur périphérique si le débit artériel fémoral augmente d'au moins 30% par administration intraveineuse, d'une part, et par administration intraduodénale, d'autre part, sans que la variation de la pression artérielle soit supérieure à +10% ou inférieure à -10%.

The test system is the same in series [3]. Put plainly: Peripheral vasodilator properties, intraduodenal administration in the anaesthetised dog. The series is classed as in vivo. The conditions noted are these: for effet sur la pression artérielle par voie I.D. / effet vasodilatateur par voie I.D.: result in words. The method, then:
as §1, §2

The nature of series [4]: Solubility in water (description of the isolated product). The series is classed as physicochemical. The note with it: result in words.
For series [5] the following is noted: as indicated in British patent n° 1.325.192; cited from earlier work.
The subject of series [6] is escarres. Kind of series: Clinical use in the treatment of bedsores. The series is classed as in vivo, homme. The note with it: in man.

With `O=C(CCCN1CCCC1)c1c(O)cc(O)cc1O` [(2,4,6-trihydroxyphényl)-(3-pyrrolidinopropyl)-cétone], the “propriétés vasodilatatrices périphériques” value in series [1] is given as “aussi intéressants que le LL 1656”.

With `COc1cc(O)c(C(=O)CCCN2CCCC2)c(OC)c1` [(2,4-diméthoxy-6-hydroxyphényl)-(3-pyrrolidinopropyl)-cétone], the “propriétés vasodilatatrices périphériques” value in series [1] is given as “aussi intéressants que le LL 1656”.

For `COc1cc(O)cc(OC)c1C(=O)CCCN1CCCC1` [(2,6-diméthoxy-4-hydroxy-phényl)-(3-pyrrolidinopropyl)-cétone], the “propriétés vasodilatatrices périphériques” value in series [1] is recorded as “dépourvus d'effets vasodilatateurs périphériques”.

In the case of `COc1cc(O)c(C(=O)CCCN2CCCCC2)c(OC)c1` [CP1, chlorhydratede (2,4-diméthoxy-6-hydroxyphényl)-(3-pipé-ridinopropyl)-cétone], the “effet vasodilatateur par voie I.V.” value in series [2] (result in words, i.v. route) is “très faiblement vasodilatateur”. Moreover, in series [3] (intraduodenal route), the “diminution de la pression artérielle par voie I.D.” value is reported as above 10%, the “effet sur la pression artérielle par voie I.D.” value is listed as “effet hypotenseur” and the “effet vasodilatateur par voie I.D.” value was “n'a guère d'effet vasodilatateur”. Also, the “solubilité dans l'eau” value in series [4] was “très soluble dans l'eau”.

Consider `O=C(CCCN1CCCCC1)c1c(O)cc(O)cc1O` [CP2, chlorhydratede (2,4,6-trihydroxyphényl)-(3-pipéridinopropyl)-cétone], for which, in series [3] (intraduodenal route), the “variation du débit artériel fémoral par voie I.D.” value was “+17%”, the “effet sur la pression artérielle par voie I.D.” value is listed as “effet hypotenseur” and the “effet vasodilatateur par voie I.D.” value was “pratiquement dépourvu d'effet vasodilatateur”. Moreover, the “dose à partir de laquelle le produit est vasodilatateur par voie I.V.” value in series [5] was at least 5 mg/kg.

For `COc1ccc(C(=O)CN2CCCCC2)c(OC)c1` [CP5, (2,4-dimé-thoxyphényl)-(pipéridinométhyl)-cétone], in series [3] (Canis lupus familiaris, intraduodenal, dose 20 mg/kg, versus controls, read-out: Variations en % Pression artérielle), the change in vivo at 20 mg/kg was 0%.

Take `COc1cc(OC)c(C(=O)CCCN2CCCC2)c(OC)c1` [CP7, chlorhydratede (2,4,6-triméthoxyphényl)-(3-pyrrolidinopropyl)-cétone]: the change in vivo at 6 mg/kg in series [2] (Canis lupus familiaris, intravenous, dose 6 mg/kg, versus controls, read-out: Variations en % Fréquence cardiaque) was determined as 0%. Also, in series [2] (Canis lupus familiaris, intravenous, dose 1,5 mg/kg, versus controls, read-out: Variations en % Pression artérielle), the change in vivo at 1.5 mg/kg was found to be 0%.

For `COc1cc(O)cc(OC)c1C(=O)CCCN1CCCCC1` [Exemple 1, chlorhydratede (2,6-diméthoxy-4-hydroxyphényl)-(3-pipéridinopropyl)-cétone], the “activité en tant que vasodilatateur périphérique (comparaison)” value in series [2] (text conclusion from tables II and III (i.v. and i.d.)) was “aussi actif que le produit de référence CP7”. Also, the “variation du débit artériel fémoral par voie I.V.” value in series [2] (text summary over all i.v. doses (toujours)) is reported as “> +30%”. For the same molecule, in series [3] (intraduodenal route), the “variation du débit artériel fémoral par voie I.D.” value is given as “> +30%”. Moreover, the “résultats dans le traitement des escarres” value in series [6] is reported as “bons résultats”. For the same molecule, in series [4], the “solubilité dans l'eau” value is “soluble dans l'eau”.

For the molecule “(2,6-dihydroxy-4-méthoxyphényl)- ou (2,4-dihydroxy-6-méthoxyphényl)-(3-pyrrolidinopropyl)-cétone”, the “propriétés vasodilatatrices périphériques” value in series [1] is “dépourvus d'effets vasodilatateurs périphériques”.
